# pEC50: −log10 of the molar value.
# Molecular target: AMPK
# Experiment: AMPK activation, enzyme-linked immunosorbent assay
# Assay type: biochemical
# Details: ELISA
# Protocol: Compounds 1-13 were assayed for their ability to activate AMPK using an enzyme-linked immunosorbent assay.
# Compounds 14-16 were assayed for their ability to activate AMPK using an enzyme-linked immunosorbent assay.
# Compounds 17-18 were assayed for their ability to activate AMPK using an enzyme-linked immunosorbent assay.
# Compounds 19-22 were assayed for their ability to activate AMPK using an enzyme-linked immunosorbent assay.
# Compounds 23-26 were assayed for their ability to activate AMPK using an enzyme-linked immunosorbent assay.
# Compounds 27-33 were assayed for their ability to activate AMPK using an enzyme-linked immunosorbent assay.
# Compounds 34-42 were assayed for their ability to activate AMPK using an enzyme-linked immunosorbent assay.
smiles,measurement,setting,value
"N#Cc1ccc(CN2CCC(NC(=O)c3cnc(OC4CCN(c5ccc(C(F)(F)F)cc5)CC4)s3)CC2)cc1 [Compound 23, N-(1-(4-cyanobenzyl)piperidin-4-yl)-2-(1-(4-(trifluoromethyl)phenyl)piperidin-4-yloxy)thiazole-5-carboxamide]",pEC50,Table 6,> 7.00
"N#Cc1ccc(CN2CC3CC2CN3C(=O)c2nc3ccc(OC4CCN(c5ccc(C(F)(F)F)cc5)CC4)cc3o2)cc1 (stereo not drawn) [Compound 10, 4-((5-(6-(1-(4-(Trifluoromethyl)phenyl)piperidin-4-yloxy)benzo[d]oxazole-2-carbonyl)-2,5-diazabicyclo[2.2.1]heptan-2-yl)methyl)benzonitrile]",pEC50,Table 2,6.00 to 7.00
"N#Cc1ccc(CN2CCC(NC(=O)c3nc4ccc(OC5CCN(c6ccc(C(F)(F)F)cc6)CC5)cc4o3)CC2)cc1 [Compound 2, N-(1-(4-Cyanobenzyl)piperidin-4-yl)-6-(1-(4-(trifluoromethyl)phenyl)piperidin-4-yloxy)benzo[d]oxazole-2-carboxamide]",pEC50,Table 2,> 7.00
"O=C(NC1CCNCC1)c1nc2ccc(OC3CCN(c4ccc(C(F)(F)F)cc4)CC3)cc2o1 [Compound 5, N-(Piperidin-4-yl)-6-(1-(4-(trifluoromethyl)phenyl)piperidin-4-yloxy)benzo[d]oxazole-2-carboxamide]",pEC50,Table 2,4.00 to 5.00
"N#Cc1ccc(CN2CCC(NC(=O)c3cnc(OC4CCN(Cc5ccc(C(F)(F)F)cc5)CC4)s3)CC2)cc1 [Compound 25, N-(1-(4-Cyanobenzyl)piperidin-4-yl)-2-(1-(4-(trifluoromethyl)benzyl)piperidin-4-yloxy)thiazole-5-carboxamide]",pEC50,Table 6,> 7.00
"O=C(NC1CCNCC1)c1cnc(OC2CCN(c3ccc(C(F)(F)F)cc3)CC2)cn1 [Compound 20, N-(piperidin-4-yl)-5-(1-(4-(trifluoromethyl)phenyl)piperidin-4-yloxy)pyrazine-2-carboxamide]",pEC50,Table 5,< 4.00
"N#Cc1ccc(CN2CCC(NC(=O)c3ccc(C(=O)N4CCN(c5ccc(Cl)cc5)CC4)cc3)CC2)cc1 [Compound 29, 4-(4-(4-Chlorophenyl)piperazine-1-carbonyl)-N-(1-(4-cyanobenzyl)piperidin-4-yl)benzamide]",pEC50,Table 7,4.00 to 5.00
"O=C(NC1CCN(Cc2ccncc2)CC1)c1cnc(OC2CCN(c3ccc(C(F)(F)F)cc3)CC2)cn1 [Compound 21, N-(1-(Pyridin-4-ylmethyl)piperidin-4-yl)-5-(1-(4-(trifluoromethyl)phenyl)piperidin-4-yloxy)pyrazine-2-carboxamide]",pEC50,Table 5,> 7.00
"N#Cc1ccc(CN2CCC(NC(=O)c3ccc(C(=O)N4CCN(Cc5ccc(Cl)cc5)CC4)cc3)CC2)cc1 [Compound 28, 4-(4-(4-Chlorobenzyl)piperazine-1-carbonyl)-N-(1-(4-cyanobenzyl)piperidin-4-yl)benzamide]",pEC50,Table 7,> 7.00
"O=C(NC1CCN(Cc2ccncc2)CC1)c1nc2ccc(OC3CCN(c4ccc(C(F)(F)F)cc4)CC3)cc2o1 [Compound 3, N-(1-(Pyridin-4-ylmethyl)piperidin-4-yl)-6-(1-(4-(trifluoromethyl)phenyl)piperidin-4-yloxy)benzo[d]oxazole-2-carboxamide]",pEC50,Table 2,> 7.00
"N#Cc1ccc(CN2CCC(NC(=O)c3cn4ccc(OC5CCN(c6ccc(C(F)(F)F)cc6)CC5)cc4n3)CC2)cc1 [Compound 18, N-(1-(4-Cyanobenzyl)piperidin-4-yl)-7-(1-(4-(trifluoromethyl)phenyl)piperidin-4-yloxy)imidazo[1,2-a]pyridine-2-carboxamide]",pEC50,Table 4,> 7.00
"N#Cc1ccc(CN2CCC(NC(=O)c3ccc(C(=O)NC4CCN(Cc5ccccc5)CC4)cc3)CC2)cc1 [Compound 33, N^1-(1-Benzylpiperidin-4-yl)-N^4-(1-(4-cyanobenzyl)piperidin-4-yl)terephthalamide]",pEC50,Table 7,4.00 to 5.00
"N#Cc1ccc(CN2CCc3ccc(C(=O)NC4CCN(Cc5cccnc5)CC4)cc3C2)cc1 [Compound 38, 2-(4-Cyanobenzyl)-N-(1-(pyridin-3-ylmethyl)piperidin-4-yl)-1,2,3,4-tetrahydroisoquinoline-7-carboxamide]",pEC50,Table 8,> 7.00
"N#Cc1ccc(CN2CCC(NC(=O)c3ccc4c(c3)CN(Cc3ccc(C#N)cc3)CC4)CC2)cc1 [Compound 37, 2-(4-cyanobenzyl)-N-(1-(4-cyanobenzyl)piperidin-4-yl)-1,2,3,4-tetrahydroisoquinoline-7-carboxamide]",pEC50,Table 8,> 7.00
"O=C(c1ccncc1)N1CC2CC1CN2C(=O)c1nc2ccc(OC3CCN(c4ccc(C(F)(F)F)cc4)CC3)cc2o1 (stereo not drawn) [Compound 11, (5-Isonicotinoyl-2,5-diazabicyclo[2.2.1]heptan-2-yl)(6-(1-(4-(trifluoromethyl)phenyl)piperidin-4-yloxy)benzo[d]oxazol-2-yl)methanone]",pEC50,Table 2,6.00 to 7.00
"N#Cc1ccc(CN2CCC(NC(=O)c3nc4ccc(OC5CCN(c6ccc(C(F)(F)F)cc6)CC5)cc4s3)CC2)cc1 [Compound 16, N-(1-(4-Cyanobenzyl)piperidin-4-yl)-6-(1-(4-(trifluoromethyl)phenyl)piperidin-4-yloxy)benzo[d]thiazole-2-carboxamide]",pEC50,Table 3,6.00 to 7.00
"O=C(NC1CCN(Cc2ccc(C(F)(F)F)cc2)CC1)c1ccc2c(c1)CN(Cc1ccc(F)cc1)CC2 [Compound 42, 2-(4-Fluorobenzyl)-N-(1-(4-(trifluoromethyl)benzyl)piperidin-4-yl)-1,2,3,4-tetrahydroisoquinoline-7-carboxamide]",pEC50,Table 8,6.00 to 7.00
"O=C(NC1CCN(C(=O)c2ccc(F)cc2)CC1)c1nc2ccc(OC3CCN(c4ccc(C(F)(F)F)cc4)CC3)cc2o1 [Compound 4, N-(1-(4-Fluorobenzoyl)piperidin-4-yl)-6-(1-(4-(trifluoromethyl)phenyl)piperidin-4-yloxy)benzo[d]oxazole-2-carboxamide]",pEC50,Table 2,> 7.00
"N#Cc1ccc(CN2CCC(NC(=O)c3ccc(C(=O)NC4CCN(c5ccccc5)CC4)cc3)CC2)cc1 [Compound 32, N^1-(1-(4-Cyanobenzyl)piperidin-4-yl)-N^4-(1-phenylpiperidin-4-yl)terephthalamide]",pEC50,Table 7,4.00 to 5.00
"CC(C)(C)OC(=O)N1CCC(NC(=O)c2cnc(OC3CCN(c4ccc(C(F)(F)F)cc4)CC3)cn2)CC1 [Compound 19, tert-butyl 4-(5-(1-(4-(trifluoromethyl)phenyl)piperidin-4-yloxy)pyrazine-2-carboxamido)piperidine-1-carboxylate]",pEC50,Table 5,5.00 to 6.00
"O=C(NC1CCN(Cc2ccncc2)CC1)c1nc2ccc(OC3CCN(c4ccc(C(F)(F)F)cc4)CC3)cc2s1 [Compound 15, N-(1-(Pyridin-4-ylmethyl)piperidin-4-yl)-6-(1-(4-(trifluoromethyl)phenyl)piperidin-4-yloxy)benzo[d]thiazole-2-carboxamide]",pEC50,Table 3,6.00 to 7.00
"O=C(c1ccc(F)cc1)N1CC2CC1CN2C(=O)c1nc2ccc(OC3CCN(c4ccc(C(F)(F)F)cc4)CC3)cc2o1 (stereo not drawn) [Compound 13, (5-(4-fluorobenzoyl)-2,5-diazabicyclo[2.2.1]heptan-2-yl)(6-(1-(4-(trifluoromethyl)phenyl)piperidin-4-yloxy)benzo[d]oxazol-2-yl)methanone]",pEC50,Table 2,> 7.00
"N#Cc1ccc(CN2CCC(NC(=O)c3cnc(OC4CCN(c5ccc(C(F)(F)F)cc5)CC4)cn3)CC2)cc1 [Compound 22, N-(1-(4-Cyanobenzyl)piperidin-4-yl)-5-(1-(4-(trifluoromethyl)phenyl)piperidin-4-yloxy)pyrazine-2-carboxamide]",pEC50,Table 5,> 7.00
"N#Cc1ccc(C(=O)N2CCC(NC(=O)c3nc4ccc(OC5CCN(c6ccc(C(F)(F)F)cc6)CC5)cc4o3)CC2)cc1 [Compound 6, N-(1-(4-Cyanobenzoyl)piperidin-4-yl)-6-(1-(4-(trifluoromethyl)phenyl)piperidin-4-yloxy)benzo[d]oxazole-2-carboxamide]",pEC50,Table 2,> 7.00
"CC(C)(C)OC(=O)N1CCC(NC(=O)c2nc3ccc(OC4CCN(c5ccc(C(F)(F)F)cc5)CC4)cc3o2)CC1 [Compound 1, tert-butyl 4-(6-(1-(4-(trifluoromethyl)phenyl)piperidin-4-yloxy)benzo[d]oxazole-2-carboxamido)piperidine-1-carboxylate]",pEC50,Table 2,> 7.00
"CC(C)(C)OC(=O)N1CCC(NC(=O)c2nc3ccc(OC4CCN(c5ccc(C(F)(F)F)cc5)CC4)cc3s2)CC1 [Compound 14, tert-butyl 4-(6-(1-(4-(trifluoromethyl)phenyl)piperidin-4-yloxy)benzo[d]thiazole-2-carboxamido)piperidine-1-carboxylate]",pEC50,Table 3,5.00 to 6.00
"O=C(NC1CCN(Cc2ccncc2)CC1)c1cn2ccc(OC3CCN(c4ccc(C(F)(F)F)cc4)CC3)cc2n1 [Compound 17, N-(1-(Pyridin-4-ylmethyl)piperidin-4-yl)-7-(1-(4-(trifluoromethyl)phenyl)piperidin-4-yloxy)imidazo[1,2-a]pyridine-2-carboxamide]",pEC50,Table 4,> 7.00
"N#Cc1ccc(C(=O)N2CC3CC2CN3C(=O)c2nc3ccc(OC4CCN(c5ccc(C(F)(F)F)cc5)CC4)cc3o2)cc1 (stereo not drawn) [Compound 12, 4-(5-(6-(1-(4-(trifluoromethyl)phenyl)piperidin-4-yloxy)benzo[d]oxazole-2-carbonyl)-2,5-diazabicyclo[2.2.1]heptane-2-carbonyl)benzonitrile]",pEC50,Table 2,> 7.00
"O=C(NC1CCN(Cc2cccnc2)CC1)c1ccc2c(c1)CN(Cc1ccc(F)cc1)CC2 [Compound 41, 2-(4-Fluorobenzyl)-N-(1-(pyridine-3-ylmethyl)piperidin-4-yl)-1,2,3,4-tetrahydroisoquinoline-7-carboxamide]",pEC50,Table 8,5.00 to 6.00
"N#Cc1ccc(CN2CCC(NC(=O)c3ccc(C(=O)NC4CCN(Cc5ccc(C(F)(F)F)cc5)CC4)cc3)CC2)cc1 [Compound 31, N^1-(1-(4-Cyanobenzyl)piperidin-4-yl)-N^4-(1-(4-(trifluoromethyl)benzyl)piperidin-4-yl)terephthalamide]",pEC50,Table 7,> 7.00
